Laboratory results from a melting point compilation (Tetko et al.; mined from patent text by program, amines drawn as free bases though some values may be those of a salt).

| melting point | SMILES |
| --- | --- |
| 103 to 105 °C | COc1ccnc(-c2sccc2S(C)=O)c1 (stereo not given) |
| 374 °C | O=C1c2c(oc3ccccc23)-c2ccc(O)c3cccc1c23 |
| 55 to 56 °C | COc1cccc(SC2CC(=O)N2)c1 (stereo not given) |
| 191 to 192 °C | CC(C)(O)c1c(F)ccc(-c2ccc3nc(-c4ccc(Cl)cc4)cn3c2)c1F |
| 200 to 201 °C | O=C1c2ccc(N3CCCC3)c3c(Cl)c(Cl)cc(c23)C(=O)N1O |
| > 300 °C | N#Cc1cnc2cc3ccc(O)cc3cc2c1Nc1ccc(Cl)cc1Cl |
| 230 to 232 °C | Cc1nc(NC(=O)c2cccc(OC(F)(F)F)c2)sc1C(=O)NCc1ccccc1 |
| 127 to 129 °C | O=C(Nc1ccc(N2CCN(C(=O)Nc3ccc(OCCO)cc3C(F)(F)F)CC2)cc1)Nc1cccc2c1OCCO2 |
| 181 to 182 °C | CC(C)c1nccc2c(CC(=O)O)cccc12 |
| 215 °C | CC(=O)Nc1ncc(Cc2ccc(Cl)cc2)c(N)n1 |
| 78 °C | O=[N+]([O-])c1cc(Cl)c(Cl)cc1NCCCCl |
| 97 to 99 °C | CC(C)[C@@H]1C[C@H](O)[C@H](C2CCCCC2)NC1=O |
| 80 to 82 °C | CCCc1c(OCC2Cc3cc(CC(=O)OC)cc(F)c3O2)ccc(C(C)=O)c1O (stereo not given) |
| 146 to 147 °C | COc1ccc(CN2C(=O)C3CC(c4ccc([N+](=O)[O-])cc4)(C3)C2=O)cc1 |
| 186 °C | COc1ccc2ccc3c(c2c1)CC(NC(C)=O)CO3 (stereo not given) |
| 212 °C | CN(C)C(=O)c1ccc(-c2ccc(NC(=O)Nc3cccc(C(F)(F)F)c3)c(-c3n[nH]c(=O)[nH]3)c2)cc1 |
| 124 to 126 °C | O=C1[C@H]2CCC[C@H]2Nc2ccc(F)cc2N1Cc1ccccc1 (relative stereo) |
| 211 to 212 °C | O=C(NC1CC2CC(N3CCN(c4ccccc4)CC3)CC2C1)c1ccccc1 (stereo not given) |
| 151 to 153 °C | CC(C)Oc1ccnc2c1c(I)cn2S(=O)(=O)c1ccccc1 |
| 250 to 252 °C | CC(C)NC1=NS(=O)(=O)c2ccc(Oc3ccccc3)cc2N1 |
| 248 to 250 °C | Cc1ccc(-n2nc(OC(=O)c3ccccc3)c3c(c2=O)Cc2ccc(Cl)cc2N3)cc1 |
| 116 °C | CC(CCN1CCN(c2ccc(F)cc2)CC1)N1c2cccc3cccc(c23)S1(=O)=O (stereo not given) |
| 226 to 228 °C | CCCNC(=S)Nc1nc2ccc(OC(F)(F)F)cc2s1 |

| melting point | SMILES |
| --- | --- |
| 37 to 40 °C | CCCCCCCCCCCCCCCCCCOC(=O)CBr |
| 126 to 127 °C | CC1=C(C)C(=O)C(C(CCCCCC(=O)O)c2cccnc2)=C(C)C1=O (stereo not given) |
| 221 to 222 °C | C=CCNc1nc(NCC(F)(F)F)nc2ccc([N+](=O)[O-])cc12 |
| > 260 °C | Cc1cc(C)cc(Oc2c(C=O)c(C)[nH]c(=O)c2I)c1 |
| 123 to 125 °C | CC=Cc1c(N)nc(-c2ccc(C(F)(F)F)cc2)nc1C(=O)OC |
| 175 to 179 °C | N#Cc1cnc2c(oc3ccccc32)c1Nc1ccc(Oc2ccccc2)cc1 |
| 145 °C | CCOC(=O)C(C(=O)CC(C)C)C1c2ccccc2C(=O)N1c1ccc2ccc(Cl)nc2n1 (stereo not given) |
| 158 to 161 °C | Cc1cccc(-c2[nH]c(C(C)C)nc2-c2cccc(-n3ccnc3)c2)n1 |
| 150 to 154 °C | CC(=O)Nn1c(-c2ccccc2)nc2cc(C(F)(F)F)ccc21 |
| 136 °C | c1coc(Cn2c(NC3CCN(CCOc4nccs4)CC3)nc3ccccc32)c1 |
| 251 to 255 °C | O=S(=O)(O)c1ccc(OC2=C(Oc3ccc(S(=O)(=O)O)cc3)C(F)(F)C(F)(F)C2(F)F)cc1 |
| 99 to 102 °C | CCCCCCCCCCC(C)(C)NC(=O)Nc1cc(OC)cc(C(C)(C)C)c1O |
| 253 to 254 °C | Cc1cc(NCc2ccccc2)c2cc(NC(=O)C=Cc3ccccc3Cl)ccc2n1 |
| 206 °C | COc1ccccc1C1C(C#N)=C(c2ccccc2)Nc2n[nH]cc21 (stereo not given) |
| 105 °C | CN1CCC(c2c(O)cc(O)c3c(=O)cc(Oc4ccccc4Cl)oc23)C(O)C1 (stereo not given) |
| 149 °C | O=S1(=O)c2cccc3cccc(c23)N1CCCN1CCN(c2ccc(Br)cc2)CC1 |
| > 250 °C | CC(=NO)c1ccc2c(c1)C(=NNc1cccc(S(N)(=O)=O)c1C)C(=O)N2 |
| 90 to 92 °C | Cc1cc(O)c(C=O)c(C)c1Cl |
| 98 to 100 °C | CC(C)(C)OC(=O)C(=NO)C(=O)CCOCc1ccccc1 |
| 99 to 103 °C | COc1ccc(C(O)(Cc2ccncc2)c2ccncc2)cc1OC1CCCC1 (stereo not given) |
| 144 to 146 °C | Cc1ccc(C2CC(=O)c3ccccc3N2)cc1 (stereo not given) |
| 133 °C | CCN(CC)CCSC1=C(C#N)C(c2ccc(OC)cc2)(c2cccnc2)C(=O)N1 (stereo not given) |
| 256 to 259 °C | COc1ccc(Nc2nc(N3CCOCC3)nc(-n3c(C(F)F)nc4c(OC)cccc43)n2)nn1 |

| melting point | SMILES |
| --- | --- |
| 262 °C | O=C(O)c1nn(-c2ccc(Cl)cc2Cl)c2c1SCc1cc(Cl)ccc1-2 |
| 80 to 82 °C | Cc1ccccc1Oc1cccc2c1OC(=O)CC2 |
| > 250 °C | CC(C)n1nc(-c2c(-c3ccccc3)nn3ccc(O)cc23)ccc1=O |
| 166 to 168 °C | CCC(=O)c1c(C)[nH]c(-c2ccccc2)c1N |
| 66.2 to 68.7 °C | C=CCN1C(=O)NC(C)(C)C1=O |
| 176 to 178 °C | Cc1ccccc1Cn1cccc1C(=O)CC(=O)C(=O)O |
| 200 to 210 °C | Cc1nn(-c2cccnc2)cc1C(=O)O |
| 88 to 93 °C | O=c1oc2c(c(O)c1C(c1ccccc1)C1CC1)CCCCCC2CC1CCCCO1 (stereo not given) |
| 179 to 180 °C | O=C(NCCCCCCCCNC(=O)c1ccc2c(c1)OCO2)c1ccc2c(c1)OCO2 |
| 128 to 133 °C | Cc1cc(C)nc(OC(C(=O)O)C(O/C=C/Cc2ccccc2)(c2ccccc2)c2ccccc2)n1 (stereo not given) |
| 248 to 249 °C | CC(C)n1nc(-c2sc(C(=O)NCC(N)=O)nc2-c2ccccc2)ccc1=O |
| 105 to 106 °C | COc1cccc(C(NC(=O)Cc2c(Cl)cncc2Cl)C2CCCC2)c1 (stereo not given) |
| 223 to 225 °C | Cc1ccc(Cn2nnc(C(N)=O)c2N)cc1 |
| 105 to 107 °C | Cc1cccc2cc3c(=O)n(CCc4c[nH]c5ccccc45)cc(C(=O)NCCN(C)C)c3nc12 |
| 211 to 212 °C | CC(C)c1ccc2c(O)c(C(=O)Nc3ccc(OCC(C)(C)C)c(C#N)c3)sc2n1 |
| 74 to 76 °C | CC(C)C(NC(=O)OCc1ccccc1)(C(=O)OCc1ccccc1)C1CO1 (stereo not given) |
| 131 °C | O=C1CCCc2c1[nH]c1ccc(F)cc21 |
| 58 °C | COC(CCOS(=O)(=O)c1ccc(C)cc1)CCOS(=O)(=O)c1ccc(C)cc1 |
| 250 to 252 °C | NC(=O)c1c(Cl)c(-c2ccccc2)n2c1CN(S(=O)(=O)c1ccccc1)CC2 |
| 214 to 215 °C | Nc1cccc(CN/C=C2\C(=O)NC(=O)c3ccc(Br)cc32)c1 |
| 172 °C | CCn1c2c(c3ccccc31)=CC(=C1c3ccccc3-c3ccccc31)CC=2 |
| 140 to 141 °C | Cc1nc(CC2(C)CCN(c3ccc(F)cc3)CC2)nc(C(=O)NCC(=O)O)c1O |

| SMILES | melting point |
| --- | --- |
| COC(=O)C#Cc1c(C#N)nn(-c2c(Cl)cc(C(F)(F)F)cc2Cl)c1N | 201 to 202 °C |
| CCOc1ccc(F)c2c1c(CCN(C)C)cn2CC | 59 to 60 °C |
